This passage reports IC50 results from US20040082635A1, “Fused cyclic compounds and medicinal use thereof” (priority 2001, published 2004).

pIC50: −log10 of the molar value. Structures can show the parent of a compound that is named as a salt.

For this experiment, the target named is T1, HCV polymerase (Hepatitis C virus genotype 1b, UniProt P26663).
T1 construct: a region encoding NS5B (591 amino acids; J Virol 1991 Mar, 65(3), 1105-13) was amplified by PCR; 6 His (N); made in house; host or cells: Escherichia coli
T1 sequence (P26663 2420-3010): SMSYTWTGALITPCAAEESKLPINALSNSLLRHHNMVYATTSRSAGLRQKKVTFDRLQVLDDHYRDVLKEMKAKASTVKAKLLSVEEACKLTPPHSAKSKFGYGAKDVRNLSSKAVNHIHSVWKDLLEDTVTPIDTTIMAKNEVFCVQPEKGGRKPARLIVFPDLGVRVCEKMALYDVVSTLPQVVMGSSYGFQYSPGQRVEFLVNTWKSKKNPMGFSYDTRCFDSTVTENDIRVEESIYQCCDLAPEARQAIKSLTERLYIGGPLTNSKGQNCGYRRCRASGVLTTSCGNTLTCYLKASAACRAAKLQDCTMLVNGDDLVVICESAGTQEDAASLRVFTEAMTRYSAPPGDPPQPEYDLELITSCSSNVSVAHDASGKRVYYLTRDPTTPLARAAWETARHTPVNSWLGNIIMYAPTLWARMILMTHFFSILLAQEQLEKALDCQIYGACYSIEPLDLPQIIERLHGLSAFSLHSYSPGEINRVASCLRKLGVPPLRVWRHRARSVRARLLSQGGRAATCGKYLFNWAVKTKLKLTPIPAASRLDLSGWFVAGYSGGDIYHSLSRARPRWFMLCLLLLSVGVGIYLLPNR
The experiment can be described thus: biochemical. The conditions noted are these: read-out: HCV polymerase inhibitory activity IC50.

For the compound `CC(C)C(=O)N(C)c1ccc(-c2ccc(Cl)cc2)c(COc2ccc(-c3nc4cc(C(=O)O)ccc4n3C3CCCCC3)c(F)c2)c1` [Example 451, 2-[4-{2-(4-chlorophenyl)-5-(N-isopropylcarbonyl-N-methylamino)benzyloxy}-2-fluorophenyl]-1-cyclohexylbenzimidazole-5-carboxylic acid hydrochloride], the pIC50 (usually −log10 of the IC50, conventionally taken in molar units) is 7.51.

For `O=C(O)c1ccc2c(c1)nc(-c1ccc(OCc3cc(C(=O)N4CCOCC4)ccc3-c3ccc(Cl)cc3)cc1F)n2C1CCCCC1` [Example 290, 2-{4-[2-(4-chlorophenyl)-5-morpholinocarbonylbenzyloxy]-2-fluorophenyl}-1-cyclohexylbenzimidazole-5-carboxylic acid], the negative-log IC50 (pIC50) was 7.92.

On to `O=C(O)c1ccc2c(c1)nc(-c1ccc(OCc3cc(O)ccc3-c3ccc(Cl)cc3)cc1)n2C1CCCCC1` [Example 329, 2-{4-[2-(4-chlorophenyl)-5-hydroxybenzyloxy]phenyl}-1-cyclohexylbenzimidazole-5-carboxylic acid hydrochloride], for which the pIC50 is 7.33.

On to `O=C(O)c1ccc2c(c1)nc(-c1ccc(OCc3cc(C(=O)NCc4ccncc4)ccc3-c3ccc(Cl)cc3)cc1)n2C1CCCCC1` [Example 318, 2-{4-[2-(4-chlorophenyl)-5-(4-pyridylmethylcarbamoyl)-benzyloxy]phenyl}-1-cyclohexylbenzimidazole-5-carboxylic acid dihydrochloride], for which the pIC50 was 7.92.

With `O=C(O)c1ccc2c(c1)nc(-c1ccc(Oc3ccc(OCc4ccccc4)cc3)cc1C(F)(F)F)n2C1CCCCC1` [Example 150, 2-{4-(4-benzyloxyphenoxy)-2-trifluoromethylphenyl}-1-cyclohexylbenzimidazole-5-carboxylic acid], the pIC50 was 6.62.

Regarding `O=C(O[C@@H]1O[C@H](C(=O)O)[C@@H](O)[C@H](O)[C@H]1O)c1ccc2c(c1)nc(-c1ccc(OC(c3cccc(F)c3)c3cccc(F)c3)cc1F)n2C1CCCCC1` [Example 445, {[2-{4-[bis(3-fluorophenyl)methoxy]-2-fluorophenyl}-1-cyclohexylbenzimidazol-5-yl]carbonyl}-β-D-glucuronic acid], the negative logarithm of the IC50 (pIC50) was 6.48.

Turning to `CSc1ccc(-c2ccc(C(=O)N(C)C)cc2COc2ccc(-c3nc4cc(C(=O)O)ccc4n3C3CCCCC3)cc2)cc1` [Example 267, 1-cyclohexyl-2-{4-[3-dimethylcarbamoyl-6-(4-methylthiophenyl)-benzyloxy]phenyl}benzimidazole-5-carboxylic acid hydrochloride], the negative-log IC50 (pIC50) is 7.85.

`O=C(O)c1ccc2c(c1)nc(-c1ccc(COc3ccccc3-c3ccccc3)s1)n2C1CCCCC1` [Example 252, 2-[2-(2-biphenylyloxymethyl)-5-thienyl]-1-cyclohexylbenzimidazole-5-carboxylic acid]: the pIC50 is 6.49.

On to `NC(=O)Nc1ccc(-c2ccc(Cl)cc2)c(COc2ccc(-c3nc4cc(C(=O)O)ccc4n3C3CCCCC3)c(F)c2)c1` [Example 393, 2-{4-[2-(4-chlorophenyl)-5-ureidobenzyloxy]-2-fluorophenyl}-1-cyclohexylbenzimidazole-5-carboxylic acid hydrochloride], for which the pIC50 is 7.96.

With `O=C(O)c1ccc2c(c1)nc(-c1ccc(OCc3cc(N4CCCS4(=O)=O)ccc3-c3ccc(Cl)cc3)cc1F)n2C1CCCCC1` [Example 446, 2-{4-[2-(4-chlorophenyl)-5-(1,1-dioxoisothiazolidin-2-yl)benzyloxy]-2-fluorophenyl}-1-cyclohexylbenzimidazole-5-carboxylic acid hydrochloride], the pIC50 was 7.80.

`CC(C)(C)NC(=O)c1ccc(-c2ccc(Cl)cc2)c(COc2ccc(-c3nc4cc(C(=O)O)ccc4n3C3CCCCC3)c(F)c2)c1` [Example 379, 2-{4-[2-(4-chlorophenyl)-5-(tert-butylcarbamoyl)benzyloxy]-2-fluorophenyl}-1-cyclohexylbenzimidazole-5-carboxylic acid hydrochloride]: the pIC50 is 7.68.

`NC(=O)c1ccc(COc2ccc(-c3nc4cc(C(=O)O)ccc4n3C3CCCCC3)cc2)c(-c2ccc(Cl)cc2)c1` [Example 225, 2-{4-[4-carbamoyl-2-(4-chlorophenyl)benzyloxy]phenyl}-1-cyclohexylbenzimidazole-5-carboxylic acid]: the pIC50 is 7.85.

In the case of `O=C(O)c1ccc2c(c1)nc(-c1ccc(OC(Cc3ccccc3)Cc3ccccc3)cc1)n2C1CCCCC1` [Example 90, 1-cyclohexyl-2-[4-(dibenzylmethoxy)phenyl]benzimidazole-5-carboxylic acid], the pIC50 is 6.70.

In the case of `Cc1cnc(-c2ccc(-c3ccc(Cl)cc3)c(COc3ccc(-c4nc5cc(C(=O)O)ccc5n4C4CCCCC4)cc3)c2)o1` [Example 365, 2-{4-[2-(4-chlorophenyl)-5-(5-methyloxazol-2-yl)benzyloxy]-phenyl}-1-cyclohexylbenzimidazole-5-carboxylic acid hydrochloride], the pIC50 is 7.70.

For `O=C(O)c1ccc2c(c1)nc(-c1ccc(OCc3cc(C(=O)N4CCCC4)ccc3-c3ccc(Cl)cc3)cc1F)n2C1CCCCC1` [Example 287, 2-{4-[2-(4-chlorophenyl)-5-(1-pyrrolidinyl)carbonylbenzyloxy]-2-fluorophenyl}-1-cyclohexylbenzimidazole-5-carboxylic acid], the pIC50 is 7.92.

Take `CC(C)C(=O)Nc1ccc(-c2ccc(Cl)cc2)c(COc2ccc(-c3nc4cc(C(=O)O)ccc4n3C3CCCCC3)c(F)c2)c1` [Example 452, 2-[4-{2-(4-chlorophenyl)-5-(isopropylcarbonylamino)benzyloxy}-2-fluorophenyl]-1-cyclohexylbenzimidazole-5-carboxylic acid hydrochloride]: the pIC50 was 7.55.

For the compound `Cc1cc(OCc2ccccc2-c2ccc(C(F)(F)F)cc2)ccc1-c1nc2cc(C(=O)O)ccc2n1C1CCCCC1` [Example 144, 1-cyclohexyl-2-{2-methyl-4-[2-(4-trifluoromethylphenyl)-benzyloxy]phenyl}benzimidazole-5-carboxylic acid], the pIC50 is 6.72.

Turning to `CN(C)C(=O)c1ccc(C(Oc2ccc(-c3nc4cc(C(=O)O)ccc4n3C3CCCCC3)c(F)c2)c2ccc(F)cc2)cc1` (centres unmarked) [Example 326, 2-{4-[(4-fluorophenyl){4-(dimethylaminocarbonyl)phenyl}methoxy]-2-fluorophenyl}-1-cyclohexylbenzimidazole-5-carboxylic acid], the pIC50 is 7.74.

On to `O=C(O)c1ccc2c(c1)nc(-c1ccc(OCc3ccccc3Cl)cc1)n2C1CCCC1` [Example 54, 2-[4-(2-chlorobenzyloxy)phenyl]-1-cyclopentylbenzimidazole-5-carboxylic acid], for which the pIC50 was 6.25.

With `CN1CCC(COc2cccc(Oc3ccc(-c4nc5cc(C(=O)O)ccc5n4C4CCCCC4)cc3)c2)CC1` [Example 211, 1-cyclohexyl-2-{4-[3-{(1-methyl-4-piperidyl)methoxy}phenoxy]-phenyl}benzimidazole-5-carboxylic acid], the pIC50 is 7.23.

In the case of `O=C(O)c1ccc2c(c1)nc(-c1ccc(Oc3cc(OCc4ccccc4)ncn3)cc1)n2C1CCCCC1` [Example 238, 2-[4-(4-benzyloxy-6-pyrimidinyloxy)phenyl]-1-cyclohexylbenzimidazole-5-carboxylic acid], the negative logarithm of the IC50 (pIC50) is 6.72.

As to `CS(=O)(=O)c1ccc(-c2ccc(Cl)cc2COc2ccc(-c3nc4cc(C(=O)O)ccc4n3C3CCCCC3)cc2)cc1` [Example 167, 2-{4-[3-chloro-6-(4-methanesulfonylphenyl)benzyloxy]phenyl}-1-cyclohexylbenzimidazole-5-carboxylic acid], the pIC50 was 7.48.

For `O=C(O)c1ccc2c(c1)nc(-c1ccc(Oc3cccc(-c4ccccc4)c3)cc1)n2C1CCCCC1` [Example 154, 2-[4-(3-biphenylyloxy)phenyl]-1-cyclohexylbenzimidazole-5-carboxylic acid], the negative-log IC50 (pIC50) is 7.12.

On to `CN(C)C(=O)COc1cccc(Oc2ccc(-c3nc4cc(C(=O)O)ccc4n3C3CCCCC3)cc2)c1` [Example 196, 1-cyclohexyl-2-{4-[3-(dimethylcarbamoylmethoxy)phenoxy]phenyl}benzimidazole-5-carboxylic acid], for which the pIC50 is 6.70.

`Nc1ccc(-c2ccc(Cl)cc2)c(COc2ccc(-c3nc4cc(C(=O)O)ccc4n3C3CCCCC3)cc2)c1` [Example 308, 2-{4-[5-amino-2-(4-chlorophenyl)benzyloxy]phenyl}-1-cyclohexylbenzimidazole-5-carboxylic acid]: the pIC50 is 7.64.

In the case of `O=C(O)c1ccc2c(c1)nc(-c1ccc(OCc3cc(C(=O)N4CCCCC4)ccc3-c3ccc(Cl)cc3)cc1F)n2C1CCCCC1` [Example 286, 2-{4-[2-(4-chlorophenyl)-5-piperidinocarbonylbenzyloxy]-2-fluorophenyl}-1-cyclohexylbenzimidazole-5-carboxylic acid], the pIC50 was 7.85.

With `O=C(O)c1ccc2c(c1)nc(-c1ccc(OCc3cc(N4CCNC4=O)ccc3-c3ccc(Cl)cc3)cc1F)n2C1CCCCC1` [Example 424, 2-{4-[2-(4-chlorophenyl)-5-(2-oxoimidazolidin-1-yl)benzyloxy]-2-fluorophenyl}-1-cyclohexylbenzimidazole-5-carboxylic acid hydrochloride], the negative-log IC50 (pIC50) is 7.70.

On to `O=C(O)c1ccc2c(c1)nc(-c1ccc(OCc3cc(Cl)ccc3-c3ccc(-c4nnn[nH]4)cc3)cc1)n2C1CCCCC1` [Example 369, 2-{4-[5-chloro-2-(4-tetrazol-5-ylphenyl)benzyloxy]phenyl}-1-cyclohexylbenzimidazole-5-carboxylic acid hydrochloride], for which the negative-log IC50 (pIC50) was 7.66.

`CC(C)NC(=O)c1ccc(-c2cc(Cl)cc(Cl)c2)c(COc2ccc(-c3nc4cc(C(=O)O)ccc4n3C3CCCCC3)c(F)c2)c1` [Example 398, 2-{4-[2-(3,5-dichlorophenyl)-5-(isopropylcarbamoyl)benzyloxy]-2-fluorophenyl}-1-cyclohexylbenzimidazole-5-carboxylic acid hydrochloride]: the pIC50 is 7.11.
